From patent publication US20260078120A1, “SUBSTITUTED PYRIDOPYRIMIDINONES” (MIRATI THERAPEUTICS, INC., priority 2022, published 2026)

Columns and labels:
[1] = test system: SKBR3 (PI3Kα wild type) cells; test: CellTiter-Glo 2.0 luminescent cell viability assay, 72 hours, SKBR3 cells; format: cell-based; details: Homo sapiens, SK-BR-3, 72 h, SKBR3 (PI3Kα wild type) cells, CellTiter-Glo, approximately 72 hours; read-out: SKBR3 (WT) Viability IC50
Outline: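 Viability measured via CTG luminescence following roughly 72 hours of compound exposure at 37° C. Dosing used a 10 um starting concentration diluted 1:4 over 10 points; percent-of-vehicle data fitted with a variable-slope four-parameter model for IC50.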

[2] = test system: T47D (PI3Kα H1047R mutant) cells; test: CellTiter-Glo 2.0 luminescent cell viability assay, 72 hours, T47D cells; format: cell-based; details: Homo sapiens, T47D, 72 h, T47D (PI3Kα H1047R mutant) cells, CellTiter-Glo, approximately 72 hours; read-out: T47D (H1047R mutant) Viability IC50
Outline: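 Cells seeded at 1000 per well overnight were dosed with a 10-concentration, 1:4 series starting at 10 µM and incubated ~72 h at 37° C. Viability was read by CellTiter-Glo 2.0 luminescence after 30 min at room temperature. IC50 came from four-parameter fits of percent vehicle control.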

| IC50 [1] [nM] | IC50 [2] [nM] | Structure (SMILES) |
| --- | --- | --- |
| > 10000 | 7900 | Cc1cc([C@@H](C)Nc2ccccc2C(=O)O)c2nc(Cl)c(C#N)c(=O)n2c1 [Example 11-243, (R)-2-((1-(2-chloro-3-cyano-7-methyl-4-oxo-4H-pyrido[1,2-a]pyrimidin-9-yl)ethyl)amino)benzoic acid] |
| 10000 | 174 | Cc1cc([C@@H](C)Nc2ccc(Cl)nc2C(=O)O)c2nc(N3CCN(c4ccc(C#N)cc4C)CC3)c(C)c(=O)n2c1 [Example 11-133, (R)-6-chloro-3-((1-(2-(4-(4-cyano-2-methylphenyl)piperazin-1-yl)-3,7-dimethyl-4-oxo-4H-pyrido[1,2-a]pyrimidin-9-yl)ethyl)amino)picolinic acid] |
| > 10000 | 362 | Cc1cc([C@@H](C)Nc2ccccc2C(=O)O)c2nc(N3CCN(c4ccccc4)CC3C)c(C)c(=O)n2c1 (stereo partly drawn) [Example 11-268, 2-(((1R)-1-(3,7-dimethyl-2-(2-methyl-4-phenylpiperazin-1-yl)-4-oxo-4H-pyrido[1,2-a]pyrimidin-9-yl)ethyl)amino)benzoic acid] |
| 952 | 139 | Cc1cc([C@@H](C)Nc2ccccc2C(=O)O)c2nc(N3CCN(c4cccc(C#N)c4)C[C@H]3C)c(C#N)c(=O)n2c1 [Example 11-84, 2-(((R)-1-(3-cyano-2-((R)-4-(3-cyanophenyl)-2-methylpiperazin-1-yl)-7-methyl-4-oxo-4H-pyrido[1,2-a]pyrimidin-9-yl)ethyl)amino)benzoic acid] |
| > 10000 | 1360 | Cc1cc([C@@H](C)Nc2ccccc2C(=O)O)c2nc(N3CCC[C@H](C(F)(F)F)C3)c(C)c(=O)n2c1 [Example 11-212, 2-(((R)-1-(3,7-dimethyl-4-oxo-2-((S)-3-(trifluoromethyl)piperidin-1-yl)-4H-pyrido[1,2-a]pyrimidin-9-yl)ethyl)amino)benzoic acid] |
| > 10000 | 1100 | Cc1cc([C@H](C)OC(=O)c2nc(Cl)ccc2N)c2nc(N3CCCCC3)c(C#N)c(=O)n2c1 [Example 11-329, (S)-1-(3-cyano-7-methyl-4-oxo-2-(piperidin-1-yl)-4H-pyrido[1,2-a]pyrimidin-9-yl)ethyl 3-amino-6-chloropicolinate] |
| > 10000 | > 10000 | CCC(O)c1cc(C)cn2c(=O)cc(N3CCCCC3)nc12 (stereo not shown) [Example 11-410, 9-(1-hydroxypropyl)-7-methyl-2-(piperidin-1-yl)-4H-pyrido[1,2-a]pyrimidin-4-one] |
| 9810 | 481 | Cc1cc(C(C)Nc2ccc(Cl)nc2C(=O)O)c2nc(N3CCCCC3)c(C#N)c(=O)n2c1 (stereo not shown) [Example 11-332, 6-chloro-3-((1-(3-cyano-7-methyl-4-oxo-2-(piperidin-1-yl)-4H-pyrido[1,2-a]pyrimidin-9-yl)ethyl)amino)picolinic acid] |
| > 10000 | 50.5 | C[C@@H](Nc1ccccc1C(=O)O)c1cc(Cl)cn2c(=O)c(C#N)c(N3CCC(F)(F)CC3)nc12 [Example 10-26, (R)-2-((1-(7-chloro-3-cyano-2-(4,4-difluoropiperidin-1-yl)-4-oxo-4H-pyrido[1,2-a]pyrimidin-9-yl)ethyl)amino)benzoic acid] |
| > 10000 | 5460 | CC(=O)N1CCC(c2cc(=O)n3cc(C)cc(C(C)Nc4ccccc4C(=O)O)c3n2)CC1 (stereo not shown) [Example 11-381, 2-((1-(2-(1-acetylpiperidin-4-yl)-7-methyl-4-oxo-4H-pyrido[1,2-a]pyrimidin-9-yl)ethyl)amino)benzoic acid] |
| > 10000 | 1330 | Cc1cc([C@@H](C)Nc2ccccc2C(=O)O)c2nc(N3CC(C#N)C3)c(C#N)c(=O)n2c1 [Example 11-109, (R)-2-((1-(3-cyano-2-(3-cyanoazetidin-1-yl)-7-methyl-4-oxo-4H-pyrido[1,2-a]pyrimidin-9-yl)ethyl)amino)benzoic acid] |
| > 10000 | 871 | Cc1cc([C@@H](C)Nc2ccccc2C(=O)O)c2nc(N3CC(c4cc(C(F)(F)F)on4)C3)c(C)c(=O)n2c1 [Example 11-442, (R)-2-((1-(3,7-dimethyl-4-oxo-2-(3-(5-(trifluoromethyl)isoxazol-3-yl)azetidin-1-yl)-4H-pyrido[1,2-a]pyrimidin-9-yl)ethyl)amino)benzoic acid] |
| > 10000 | 390 | [2H]C12CC(C3CCN(c4nc5c([C@@H](C)Nc6ccccc6C(=O)O)cc(C)cn5c(=O)c4C)CC3)(C1)C2 [Example 11-36, (R)-2-((1-(2-(4-(bicyclo[1.1.1]pentan-1-yl-3-d)piperidin-1-yl)-3,7-dimethyl-4-oxo-4H-pyrido[1,2-a]pyrimidin-9-yl)ethyl)amino)benzoic acid] |
| > 10000 | 303 | Cc1cc([C@@H](C)Nc2ccccc2C(=O)O)c2nc(N3CC4CC3CC4c3ccccc3)c(C)c(=O)n2c1 (stereo partly drawn) [Example 11-32, 2-(((1R)-1-(3,7-dimethyl-4-oxo-2-(5-phenyl-2-azabicyclo[2.2.1]heptan-2-yl)-4H-pyrido[1,2-a]pyrimidin-9-yl)ethyl)amino)benzoic acid] |
| > 10000 | 6860 | Cc1cc(C(C)Nc2ccccc2C(=O)O)c2nc(-c3ccccn3)cc(=O)n2c1 (stereo not shown) [Example 11-402, 2-((1-(7-methyl-4-oxo-2-(pyridin-2-yl)-4H-pyrido[1,2-a]pyrimidin-9-yl)ethyl)amino)benzoic acid] |
| > 10000 | 192 | Cc1cc([C@@H](C)Nc2ccc(Cl)nc2C(=O)O)c2nc(N3CCC(C)(C)CC3)c(C)c(=O)n2c1 [Example 11-279, (R)-6-chloro-3-((1-(2-(4,4-dimethylpiperidin-1-yl)-3,7-dimethyl-4-oxo-4H-pyrido[1,2-a]pyrimidin-9-yl)ethyl)amino)picolinic acid] |
| > 10000 | 1540 | Cc1cc([C@@H](C)Nc2ccccc2C(=O)O)c2nc(O[C@@H]3CCOC3)c(C#N)c(=O)n2c1 [Example 11-247, 2-(((R)-1-(3-cyano-7-methyl-4-oxo-2-(((R)-tetrahydrofuran-3-yl)oxy)-4H-pyrido[1,2-a]pyrimidin-9-yl)ethyl)amino)benzoic acid] |
| > 10000 | 91.3 | Cc1cc([C@@H](C)Nc2ccccc2C(=O)O)c2nc(N3CC4(CO)CCCC3C4)c(C)c(=O)n2c1 (stereo partly drawn) [Example 10-144, 2-(((1R)-1-(2-(1-(hydroxymethyl)-6-azabicyclo[3.2.1]octan-6-yl)-3,7-dimethyl-4-oxo-4H-pyrido[1,2-a]pyrimidin-9-yl)ethyl)amino)benzoic acid] |
| > 10000 | 192 | Cc1cc([C@@H](C)Nc2ccccc2C(=O)O)c2nc(N3C[C@@H]4C[C@H]3CC4(F)F)c(C)c(=O)n2c1 [Example 11-231, 2-(((R)-1-(2-((1S,4S)-5,5-difluoro-2-azabicyclo[2.2.1]heptan-2-yl)-3,7-dimethyl-4-oxo-4H-pyrido[1,2-a]pyrimidin-9-yl)ethyl)amino)benzoic acid] |
| > 10000 | 117 | Cc1cc([C@@H](C)Nc2ccccc2C(=O)O)c2nc(N3CC(C(F)(F)F)C3)c(C#N)c(=O)n2c1 [Example 11-106, (R)-2-((1-(3-cyano-7-methyl-4-oxo-2-(3-(trifluoromethyl)azetidin-1-yl)-4H-pyrido[1,2-a]pyrimidin-9-yl)ethyl)amino)benzoic acid] |
| > 10000 | 219 | Cc1cc([C@@H](C)Nc2ccccc2C(=O)O)c2nc(N3CCC4(CCO4)CC3)c(C#N)c(=O)n2c1 [Example 11-55, (R)-2-((1-(3-cyano-7-methyl-4-oxo-2-(1-oxa-7-azaspiro[3.5]nonan-7-yl)-4H-pyrido[1,2-a]pyrimidin-9-yl)ethyl)amino)benzoic acid] |
| > 10000 | > 10000 | Cc1cc([C@@H](C)Nc2ccccc2C(=O)O)c2nc(N[C@H](C)c3cccnc3)c(C#N)c(=O)n2c1 [Example 11-51, 2-(((R)-1-(3-cyano-7-methyl-4-oxo-2-(((R)-1-(pyridin-3-yl)ethyl)amino)-4H-pyrido[1,2-a]pyrimidin-9-yl)ethyl)amino)benzoic acid] |
| > 10000 | 227 | Cc1c(N2CCC(F)(F)CC2)nc2c([C@@H](C)Nc3ccccc3C(=O)O)cc(C(F)F)cn2c1=O [Example 11-171, (R)-2-((1-(7-(difluoromethyl)-2-(4,4-difluoropiperidin-1-yl)-3-methyl-4-oxo-4H-pyrido[1,2-a]pyrimidin-9-yl)ethyl)amino)benzoic acid] |
| > 10000 | 233 | CO[C@H]1CN(c2nc3c([C@@H](C)Nc4ccccc4C(=O)O)cc(C)cn3c(=O)c2C)CC1(F)F [Example 11-118, 2-(((R)-1-(2-((S)-3,3-difluoro-4-methoxypyrrolidin-1-yl)-3,7-dimethyl-4-oxo-4H-pyrido[1,2-a]pyrimidin-9-yl)ethyl)amino)benzoic acid] |
| > 10000 | > 10000 | Cc1cc([C@@H](C)NC(=O)C2(C(=O)O)CCC2)c2nc(N3CCCCC3)c(C#N)c(=O)n2c1 [Example 11-317, (R)-1-((1-(3-cyano-7-methyl-4-oxo-2-(piperidin-1-yl)-4H-pyrido[1,2-a]pyrimidin-9-yl)ethyl)carbamoyl)cyclobutane-1-carboxylic acid] |

| Structure (SMILES) | IC50 [1] [nM] | IC50 [2] [nM] |
| --- | --- | --- |
| Cc1cc([C@@H](C)Nc2ccccc2C(=O)O)c2nc(N3CC4CC(C3)O4)c(C#N)c(=O)n2c1 [Example 11-322, 2-(((1R)-1-(2-(6-oxa-3-azabicyclo[3.1.1]heptan-3-yl)-3-cyano-7-methyl-4-oxo-4H-pyrido[1,2-a]pyrimidin-9-yl)ethyl)amino)benzoic acid] | > 10000 | 711 |
